“Also recorded” adds a separate entry of the source.
Key:
[1] = tested on: MDA-MB-231 cells; assay: Trypan blue staining and cell counting (cell viability) under ROCK inhibitor treatment; assay type: cell-based, human; conditions: 2 hrs at 37° C., 1-50 μM
Procedure: ROCK Inhibition. Cells were detached from cell culture flasks using trypsin-EDTA and incubated at 37° C. for 2 hrs in media containing ROCK inhibitor Y-27632 (Sigma-Aldrich, Inc.) at concentrations ranging from 1-50 μM. […] Cells were cultured in drugged media for one hr on well plates containing Alexa Fluor 647-labeled ephrin-A1 functionalized supported bilayers. Cells were fixed, stained and imaged with epifluorescence microscopy as described above.

[2] = tested on: MDA-MB-231 cells; assay: ROCK inhibition: EphA2-ephrin-A1 radial transport on ephrin-A1 functionalized supported bilayers; assay type: cell-based, human; conditions: inhibitor 1 to 50 μM, normalized to untreated samples
Procedure: Radial Transport Analysis. Bright field microscopy was used to determine the area occupied by each cell. The corresponding areas in the fluorescence channel were then analyzed using the Radial Profile plugin from ImageJ, yielding a plot of normalized fluorescence intensities versus radial distance from the cell center. Plots were then normalized for cell size and averaged. Least squares analysis was then performed on the average normalized radial distribution using Origin 7.0 (OriginLab, Northampton, Mass.), and the slope of the calculated line was used as a score for propensity to radially transport ephrin-A1. ROCK Inhibition. Cells were detached from cell culture flasks using trypsin-EDTA and incubated at 37° C. for 2 hrs in media containing ROCK inhibitor Y-27632 (Sigma-Aldrich, Inc.) at concentrations ranging from 1-50 μM. […] Cells were cultured in drugged media for one hr on well plates containing Alexa Fluor 647-labeled ephrin-A1 functionalized supported bilayers. Cells were fixed, stained and imaged with epifluorescence microscopy as described above.

[3] = tested on: MDA-MB-231 cells; conditions: binary mixture with ephrin-A1, 1 hr after plating
Procedure: Surface Functionalization. After lipid bilayer deposition, substrates were incubated for 45 min with a 0.01% bovine serum albumin (BSA; Sigma-Aldrich, Inc.) solution to minimize non-specific protein adsorption. The supported membranes were then incubated with a 17 nM solution of streptavidin (Fisher Scientific, Pittsburgh, Pa.) for 45 minutes. For experiments that quantify protein surface density, streptavidin conjugated to Alexa Fluor 488 (Invitrogen Corp.) was substituted for the unlabeled protein. The supported membrane was then thoroughly rinsed and substrates were incubated for 45 min with a 50 nM solution of ephrin-A1 (R&D Systems, Minneapolis, Minn.), which had been biotinylated (Fisher Scientific) and conjugated to Alexa Fluor 594 or Alexa Fluor 647 (both from Invitrogen Corp.).
Optical Microscopy. We used Nikon Eclipse TE2000-E and TE300 inverted microscopes with mercury arc lamps for epifluorescence illumination and 12 V, 100 W halogen lamps for bright field illumination. Total internal reflection fluorescence (TIRF) illumination was provided using a krypton/argon ion laser for 647 nm excitation, and an argon ion laser (Stabilite 2018 and Model 177 respectively, both from Spectra-Physics, Mountain View, Calif.) for 488 nm excitation. […]

Row | Compound | cell viability (Trypan blue staining and cell counting) [1] | Eph-ephrin radial transport (capacity to transport EphA2-ephrin-A1 complexes to the center of the cell-supported membrane junction) [2] | EphA2 organization with increasing RGD peptide density [3] | cell-supported membrane contact area (RICM) with increasing RGD peptide density [3]
1 | C[C@@H](N)[C@H]1CC[C@H](C(=O)Nc2ccncc2)CC1 [Y-27632] | no adverse effects | dose-dependent decrease; also recorded: dosage-dependent decrease | – | –
2 | [Arg-Gly-Asp-d-Phe-Lys(Biotin-PEG-PEG)] [cyclic RGD peptide] | – | – | no change in EphA2 organization | progressively larger
